{
  "source": "patent US6617315B1",
  "about": "“Therapeutic compounds” (priority 1996, dated 2003)",
  "key": {"HCMV strain AD169": {"tested_on": "HCMV strain AD169", "assay": "Human Cytomegalovirus (HCMV) assay, antiviral effect by HCMV DNA hybridization", "assay_type": "cell-based", "details": "HCMV strain AD169 on MRC5 cell monolayers, 96 well plates, 5 days incubation, HCMV DNA by blotting and quantitative specific DNA hybridization", "procedure": "Human Cytomegalovirus (HCMV) Assay\n(§1) HCMV strain AD169 was grown on monolayers of human embryonic lung cells (MRC5 cells) in 96 well plates. After infection of the cells at a ratio of approximately 0.01 infectious virus particals per cell, the compounds to be tested were added to selected wells at six different concentrations, each in triplicate The same concentrations of compound were also applied to wells containing monolayers of uninfected cells in order to assess compound cytotoxicity. The plates were incubated for 5 days, and the minimum cytotoxic dose was estimated from microscopic examination. The IC50 for antiviral effect was estimated from measurements of HCMV DNA in each well by blotting and quantitative specific DNA hybridization, similar to the method of Gadler. (Antimicrob. Agents Chemother. 1983, 24, 370-374)."}, "[1]": {"assay": "Compound cytotoxicity on uninfected MRC5 cell monolayers", "assay_type": "cell-based, human", "details": "uninfected MRC5 cell monolayers (human embryonic lung cells); uninfected human embryonic lung cells (MRC5), 5 days incubation, estimated from microscopic examination; read-out: MRC5 tox CC50", "procedure": "as §1"}, "MRC5 cells": {"tested_on": "MRC5 cells", "assay": "Compound cytotoxicity on uninfected MRC5 cell monolayers", "assay_type": "cell-based, human", "procedure": "as §1"}},
  "data": [
    {"molecule": "CC(C)Nc1nc2c(Cl)cc(Cl)cc2n1[C@H]1O[C@@H](CO)[C@H](O)[C@@H]1O", "note": "[Example 53, 4,6-Dichloro-2-(isopropylamino)-1-(beta-L-ribofuranosyl)-1H-benzimidazole]", "values": [
      {"measurement": "IC50", "setting": "HCMV strain AD169; Human betaherpesvirus 5, 120 h", "value": 0.15, "unit": "µM"},
      {"measurement": "CC50 at 5 days", "setting": "[1]", "value": 100, "unit": "µM"},
      {"measurement": "melting point", "value": "212 to 214", "unit": "°C"}
    ]},
    {"molecule": "CC(C)Nc1nc2cc(Cl)c(Cl)cc2n1[C@H]1O[C@@H](CO)C[C@@H]1O", "note": "[Example 16, 5,6-Dichloro-1-(3-deoxy-beta-L-ribofuranosyl)-2-isopropylamino-1H-benzimidazole]", "values": [
      {"measurement": "IC50", "setting": "HCMV strain AD169; Human betaherpesvirus 5, 120 h", "value": 0.2, "unit": "µM"},
      {"measurement": "CC50 at 5 days", "setting": "[1]", "value": 100, "unit": "µM"},
      {"measurement": "melting point", "value": "153 to 155", "unit": "°C"}
    ]},
    {"molecule": "CC(C)(C)Nc1nc2cc(Cl)c(Cl)cc2n1[C@H]1O[C@@H](CCl)[C@H](O)[C@@H]1O", "note": "[Example 14, 2-tert-Butylamino-1-(5-Chloro-5-deoxy-beta-L-ribofuranosyl)-5,6-dichloro-1H-benzimidazole]", "values": [
      {"measurement": "IC50", "setting": "HCMV strain AD169; Human betaherpesvirus 5, 120 h", "value": 1, "unit": "µM"},
      {"measurement": "CC50 at 5 days", "setting": "[1]", "value": 30, "unit": "µM"},
      {"measurement": "melting point", "value": "112 to 114", "unit": "°C"}
    ]},
    {"molecule": "CC(C)Nc1nc2c(Cl)c(Cl)c(Cl)cc2n1[C@H]1O[C@@H](CO)[C@H](O)[C@@H]1O", "note": "[Example 31, 2-(Isopropylamino)-4,5,6-trichloro-1-(beta-L-ribofuranosyl)-1H-benzimidazole]", "values": [
      {"measurement": "melting point", "value": "223 to 224", "unit": "°C"}
    ]},
    {"molecule": "C[C@@H]1O[C@H](n2c(Br)nc3cc(Cl)c(Cl)cc32)[C@@H](O)[C@H]1O", "note": "[Example 4, 2-Bromo-5,6-dichloro-1-(5-deoxy-beta-L-ribofuranosyl)-1H-benzimidazole]", "values": [
      {"measurement": "melting point", "value": "136 to 138", "unit": "°C"}
    ]},
    {"molecule": "CC(C)Nc1nc2cc(F)c(F)cc2n1[C@H]1O[C@@H](CO)[C@H](O)[C@@H]1O", "note": "[Example 46, 5,6-Difluoro-2-(isopropylamino)-1-(beta-L-ribofuranosyl)-1H-benzimidazole]", "values": [
      {"measurement": "melting point", "value": "156 to 158", "unit": "°C"}
    ]},
    {"molecule": "CC(C)Nc1nc2cc(Cl)c(Cl)cc2n1[C@@H]1C[C@@H](O)[C@H](CO)O1", "note": "[Example 19, 5,6-Dichloro-1-(2-deoxy-beta-L-erythro-pentofuranosyl)-2-isopropylamino-1H-benzimidazole]", "values": [
      {"measurement": "IC50", "setting": "HCMV strain AD169; Human betaherpesvirus 5, 120 h", "value": 0.1, "unit": "µM"},
      {"measurement": "CC50 at 5 days", "setting": "[1]", "value": 100, "unit": "µM"},
      {"measurement": "melting point", "value": "114 to 115", "unit": "°C"}
    ]},
    {"molecule": "C[C@@H]1O[C@H](n2c(NC3CC3)nc3cc(Cl)c(Cl)cc32)[C@@H](O)[C@H]1O", "note": "[Example 1, 2-Cyclopropylamino-5,6-dichloro-1-(5-deoxy-beta-L-ribofuranosyl)-1H-benzimidazole]", "values": [
      {"measurement": "IC50", "setting": "HCMV strain AD169; Human betaherpesvirus 5, 120 h", "value": 2.1, "unit": "µM"},
      {"measurement": "CC50 at 5 days", "setting": "[1]", "value": 100, "unit": "µM"},
      {"measurement": "melting point", "value": "186 to 187", "unit": "°C"}
    ]},
    {"molecule": "CC(C)Nc1nc2c(Cl)cccc2n1[C@H]1O[C@@H](CO)[C@H](O)[C@@H]1O", "note": "[Example 50, 4-Chloro-2-(isopropylamino)-1-(beta-L-ribofuranosyl)-1H-benzimidazole]", "values": [
      {"measurement": "melting point", "value": "225 to 227", "unit": "°C"}
    ]},
    {"molecule": "CC(C)Nc1nc2c(Br)c(Cl)c(Cl)cc2n1[C@H]1O[C@@H](CO)[C@H](O)[C@@H]1O", "note": "[Example 39, 4-Bromo-5,6-dichloro-2-(isopropylamino)-1-(beta-L-ribofuranosyl)-1H-benzimidazole]", "values": [
      {"measurement": "melting point", "value": "221 to 222", "unit": "°C"}
    ]},
    {"molecule": "CC(C)Nc1nc2cc(Cl)c(Cl)cc2n1[C@H]1O[C@@H](CCl)[C@H](O)[C@@H]1O", "note": "[Example 12, 1-(5-Chloro-5-deoxy-beta-L-ribofuranosyl)-5,6-dichloro-2-isopropylamino-1H-benzimidazole]", "values": [
      {"measurement": "IC50", "setting": "HCMV strain AD169; Human betaherpesvirus 5, 120 h", "value": 1.4, "unit": "µM"},
      {"measurement": "CC50 at 5 days", "setting": "[1]", "value": 30, "unit": "µM"},
      {"measurement": "melting point", "value": "95 to 97", "unit": "°C"}
    ]},
    {"molecule": "2-(Isopropylamino)-4,5,6-trichloro-1-(beta-L-erythro-pentofuranosyl)-1H-benzimidazole [Example 58]", "values": [
      {"measurement": "IC50", "setting": "HCMV strain AD169", "value": 0.15, "unit": "µM"},
      {"measurement": "CC50", "setting": "MRC5 cells", "value": 20, "unit": "µM"}
    ]},
    {"molecule": "CC(C)Nc1nc2cc(Cl)c(Cl)cc2n1[C@H]1O[C@@H](C)[C@H](O)[C@@H]1O", "note": "[Example 3, 2-Isopropylamino-5,6-dichloro-1-(5-deoxy-beta-L-ribofuranosyl)-1H-benzimidazole]", "values": [
      {"measurement": "IC50", "setting": "HCMV strain AD169; Human betaherpesvirus 5, 120 h", "value": 0.6, "unit": "µM"},
      {"measurement": "CC50 at 5 days", "setting": "[1]", "value": 30, "unit": "µM"},
      {"measurement": "melting point", "value": "103 to 105", "unit": "°C"}
    ]}
  ]
}
